Measurements: the supplement of paper PMC4862054

Columns and labels:
Conditions in all cases: incubation time: 72 h
[1] = test system: BT-549; test: normalised viability (% of control), CellTiter-Blue; higher = more viable cells (about 100 = DMSO control)
Procedure, shortened: (§1)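 Vehicle (100) and a positive kill control (0) anchored the normalisation of each plate, and Z'-factor was used for quality control. Breast cancer cell lines in 20 µl suspension were incubated 72 h over compound in 5 µl medium in 384-well plates, followed by CellTiter-Blue at 560/590 nm. The value is normalised viability at a single listed concentration of the series.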

[2] = test system: CAL-120; test: as above
Procedure, shortened: as §1

[3] = test system: CAL-148; test: as above
Procedure, shortened: as §1

[4] = test system: CAL-51; test: as above
Procedure, shortened: as §1

[5] = test system: CAL-85-1; test: as above
Procedure, shortened: as §1

[6] = test system: DU-4475; test: as above
Procedure, shortened: as §1

[7] = test system: HCC1143; test: as above
Procedure, shortened: as §1

[8] = test system: HCC1599; test: as above
Procedure, shortened: as §1

[9] = test system: HCC1937; test: as above
Procedure, shortened: as §1

[10] = test system: BT-474; test: drug sensitivity score (DSS), CellTiter-Glo (DSS (AUC-based score)); higher = stronger drug effect (viability inhibition or cytotoxicity); extreme values may be limits of the assay
Procedure, shortened: (§2)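 Each compound occupied 5 concentrations in 10-fold steps over its own 10,000-fold range in 384-well plates, into which breast cancer cell lines were seeded as 20 µl suspension. Following 72 h of incubation, CellTox Green fluorescence (485/520 nm) was measured, and CellTiter-Glo luminescence was measured after 10 min at room temperature. Plates were individually normalised to 0.1 % DMSO and a positive kill control. From the area under the fitted dose-response curve, a drug sensitivity score was calculated.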

[11] = test system: BT-549; test: as above
Procedure, shortened: as §2

[12] = test system: CAL-120; test: as above
Procedure, shortened: as §2

[13] = test system: CAL-148; test: as above
Procedure, shortened: as §2

[14] = test system: CAL-51; test: as above
Procedure, shortened: as §2

[15] = test system: CAL-85-1; test: as above
Procedure, shortened: as §2

[16] = test system: DU-4475; test: as above
Procedure, shortened: as §2

[17] = test system: HCC1143; test: as above
Procedure, shortened: as §2

[18] = test system: HCC1599; test: as above
Procedure, shortened: as §2

[19] = test system: HCC1937; test: as above
Procedure, shortened: as §2

[20] = test system: HDQ-P1; test: as above
Procedure, shortened: as §2

[21] = test system: Hs578T; test: as above
Procedure, shortened: as §2

[22] = test system: MCF-10A; test: as above
Procedure, shortened: as §2

[23] = test system: MDA-MB-436; test: as above
Procedure, shortened: as §2

[24] = test system: MDA-MB-453; test: as above
Procedure, shortened: as §2

[25] = test system: MDA-MB-468; test: as above
Procedure, shortened: as §2

[26] = test system: MFM-223; test: as above
Procedure, shortened: as §2

[27] = test system: SK-BR-3; test: as above
Procedure, shortened: as §2

| SMILES | normalised viability ([1]; 10 nM) | normalised viability ([2]; 10 nM) | normalised viability ([3]; 1 nM) | normalised viability ([4]; 1 nM) | normalised viability ([5]; 1 nM) | normalised viability ([6]; 1 nM) | normalised viability ([7]; 10 nM) | normalised viability ([8]; 10 nM) | normalised viability ([9]; 10 nM) | drug sensitivity score [10] | drug sensitivity score [11] | drug sensitivity score [12] | drug sensitivity score [13] | drug sensitivity score [14] | drug sensitivity score [15] | drug sensitivity score [16] | drug sensitivity score [17] | drug sensitivity score [18] | drug sensitivity score [19] | drug sensitivity score [20] | drug sensitivity score [21] | drug sensitivity score [22] | drug sensitivity score [23] | drug sensitivity score [24] | drug sensitivity score [25] | drug sensitivity score [26] | drug sensitivity score [27] | normalised viability ([1]; 100 nM) | normalised viability ([2]; 100 nM) | normalised viability ([3]; 10 nM) | normalised viability ([4]; 10 nM) | normalised viability ([5]; 10 nM) | normalised viability ([6]; 10 nM) | normalised viability ([7]; 100 nM) | normalised viability ([8]; 100 nM) | normalised viability ([9]; 100 nM) |
| --- | --- | --- | --- | --- | --- | --- | --- | --- | --- | --- | --- | --- | --- | --- | --- | --- | --- | --- | --- | --- | --- | --- | --- | --- | --- | --- | --- | --- | --- | --- | --- | --- | --- | --- | --- | --- |
| CC(C)(C)c1cc(NC(=O)Nc2ccc(-c3cn4c(n3)sc3cc(OCCN5CCOCC5)ccc34)cc2)no1 [Quizartinib] | 101% | 94.4% | 100% | 107% | 101% | 109% | 95.2% | 116% | 81.7% | 0 | 0 | 0 | 0 | 0 | 0 | 0 | 0 | 0 | 0 | 0 | 0 | 0 | 0 | 0 | 0 | 0 | 0 | – | – | – | – | – | – | – | – | – |
| COc1ccc(C2=N[C@@H](c3ccc(Cl)cc3)[C@@H](c3ccc(Cl)cc3)N2C(=O)N2CCNC(=O)C2)c(OC(C)C)c1 [Nutlin-3] | – | – | – | – | – | – | – | – | – | 0 | 0 | 0 | 0.553 | 10.8 | 0 | 0.984 | 0 | 0 | 0 | 0 | 0 | 0 | 0 | 0.52 | 0 | 0 | 0 | 105% | 84.8% | 95.6% | 94.3% | 99.1% | 95.4% | 84% | 118% | 106% |
| Cc1cc(C(C)Nc2ccccc2)c2nc(N3CCOCC3)cc(=O)n2c1 (stereo unspecified) [TGX-221] | – | – | – | – | – | – | – | – | – | 3.45 | 2.27 | 0.0447 | 0 | 10.7 | 0 | 0 | 0 | 0 | 0 | 0.256 | 0 | 0 | 0 | 0 | 4.69 | 0 | 0 | – | – | – | – | – | – | – | – | – |
| COc1cc(Nc2ncc(F)c(Nc3ccc4c(n3)NC(=O)C(C)(C)O4)n2)cc(OC)c1OC [Tamatinib] | – | – | – | – | – | – | – | – | – | 0 | 4.09 | 0 | 0 | 2.11 | 0 | 0 | 0 | 0 | 0 | 0 | 0 | 0 | 0 | 0 | 0 | 0 | 0 | – | – | – | – | – | – | – | – | – |
| FC(F)c1nc2ccccc2n1-c1nc(N2CCOCC2)nc(N2CCOCC2)n1 [ZSTK474] | – | – | – | – | – | – | – | – | – | 6.3 | 13.1 | 7.92 | 6.71 | 11.6 | 10.4 | 1.87 | 6.07 | 2.33 | 6.46 | 10.8 | 11.3 | 10.9 | 9.24 | 12.9 | 8.61 | 9.3 | 15.3 | – | – | – | – | – | – | – | – | – |
| C[C@@H]1CCN(C(=O)CC#N)C[C@@H]1N(C)c1ncnc2[nH]ccc12 [Tofacitinib] | – | – | – | – | – | – | – | – | – | 0 | 0 | 0 | 0 | 5 | 0 | 0 | 0 | 0 | 0 | 0 | 0 | 0 | 0 | 0 | 0 | 0 | 0 | – | – | – | – | – | – | – | – | – |
| O=P(O)(NCCCl)NCCCl [Ifosfamide mustard] | – | – | – | – | – | – | – | – | – | – | – | – | – | – | – | – | – | – | – | – | – | – | – | – | – | – | – | 106% | 92.3% | 104% | 107% | 101% | 99.5% | 116% | 117% | 100% |
| Nc1nccc(-c2c(-c3ccc(F)cc3)ncn2C2CCCCC2)n1 | – | – | – | – | – | – | – | – | – | 0.373 | 0 | 0 | 0 | 0.055 | 0.583 | 0 | 0 | 0 | 0 | 0 | 0 | 0.945 | 0 | 0.568 | 5.85 | 0 | 0 | – | – | – | – | – | – | – | – | – |
| COC(=O)C[C@](O)(CCCC(C)(C)O)C(=O)O[C@@H]1C(OC)=C[C@]23CCCN2CCc2cc4c(cc2[C@H]13)OCO4 [Omacetaxine] | – | – | – | – | – | – | – | – | – | 16.7 | 26.7 | 19 | 19.9 | 27.1 | 29.6 | 30.6 | 22.4 | 26.7 | 21.2 | 23.1 | 26 | 22.1 | 27 | 16.8 | 27.4 | 22.1 | 23.4 | – | – | – | – | – | – | – | – | – |
